The results in this text go back to patent US5708034A, “Substituted sulfonimidamides, processes for their preparation, their use as a medicament or diagnostic, and medicament comprising them” (Hoechst Aktiengesellschaft, priority 1995, dated 1998).

Where a name gives a salt, the structure may show the parent alone.

The assay has as its target T1, Na^+ /H^+ exchanger of rabbit erythrocytes (Oryctolagus cuniculus, UniProt P23791).
T1 construct: determine the Na^+ influx into the erythrocytes via Na^+ /H^+ exchange by flame photometry; endogenous in cells; host or cells: erythrocytes from ear-artery blood of cholesterol-fed White New Zealand rabbits (animals from Ivanovas)
As to the kind of experiment: Inhibition of the Na^+ /H^+ exchanger of rabbit erythrocytes (amiloride-sensitive Na^+ influx, flame photometry). The format is cell-based, rabbit (White New Zealand). Conditions: hyperosmolar salt-sucrose medium, pH 7.4, 37° C., sodium influx by flame photometry. The text has this:
Inhibition of the Na^+ /H^+ exchanger of rabbit erythrocytes
White New Zealand rabbits (Ivanovas) received a standard diet with 2% cholesterol for six weeks in order to activate Na^+ /H^+ exchange and thus to be able to determine the Na^+ influx into the erythrocytes via Na^+ /H^+ exchange by flame photometry. The blood was taken from the ear arteries and rendered incoagulable by means of 25 IU of potassium heparin. A part of each sample was used for the duplicate determination of the hematocrit by centrifugation. Aliquots of 100 μl in each case were used to measure the Na^+ starting content of the erythrocytes.
In order to determine the amiloride-sensitive sodium influx, 100 μl of each blood sample were incubated in each case in 5 ml of a hyperosmolar salt-sucrose medium (mmol/l: 140 NaCl, 3 KCl, 150 sucrose, 0.1 ouabain, 20 tris-hydroxymethylaminomethane) at pH 7.4 and 37° C. The erythrocytes were then washed three times with ice-cold MgCl2 ouabain solution (mmol/l: 112 MgCl2, 0.1 ouabain) and hemolyzed in 2.0 ml of distilled water. The intracellular sodium content was determined by flame photometry.
The net Na^+ influx was calculated from the difference between sodium starting values and the sodium content of the erythrocytes after incubation. The amiloride-inhibitable sodium influx resulted from the difference between the sodium content of the erythrocytes after incubation with and without amiloride 3×10^-4 mol/l. This procedure was also used in the case of the compounds according to the invention.

T1 sequence (P23791 whole entry): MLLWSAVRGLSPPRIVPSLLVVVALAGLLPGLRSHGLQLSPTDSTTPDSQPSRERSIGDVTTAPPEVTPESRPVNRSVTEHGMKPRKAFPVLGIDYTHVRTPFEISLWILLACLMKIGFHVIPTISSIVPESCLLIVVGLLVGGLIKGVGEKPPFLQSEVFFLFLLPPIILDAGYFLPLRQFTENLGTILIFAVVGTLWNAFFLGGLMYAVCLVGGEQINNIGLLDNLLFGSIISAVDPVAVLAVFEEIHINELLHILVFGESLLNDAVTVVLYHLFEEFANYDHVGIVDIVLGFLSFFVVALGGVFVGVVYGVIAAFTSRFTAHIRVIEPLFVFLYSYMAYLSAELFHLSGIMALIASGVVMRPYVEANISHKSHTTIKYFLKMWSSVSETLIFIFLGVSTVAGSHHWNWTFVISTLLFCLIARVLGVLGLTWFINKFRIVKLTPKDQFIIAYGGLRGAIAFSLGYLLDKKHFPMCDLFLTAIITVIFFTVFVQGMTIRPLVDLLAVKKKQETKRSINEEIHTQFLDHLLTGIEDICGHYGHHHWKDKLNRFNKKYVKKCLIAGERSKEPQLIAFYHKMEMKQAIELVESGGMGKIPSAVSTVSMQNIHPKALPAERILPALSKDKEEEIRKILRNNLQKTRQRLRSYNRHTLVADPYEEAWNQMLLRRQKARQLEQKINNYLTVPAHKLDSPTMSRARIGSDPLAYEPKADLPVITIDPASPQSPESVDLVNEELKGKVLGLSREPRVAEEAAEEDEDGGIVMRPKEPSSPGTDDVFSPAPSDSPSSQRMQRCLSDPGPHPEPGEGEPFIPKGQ

Broadly, the IC50 is the concentration that gives 50% inhibition. `CCN=S(=O)(c1ccc(F)cc1)N(CC)c1ccc(C(=O)N=C(N)N)cc1S(C)(=O)=O` (stereo not shown) [Example 1, 4-(4-Fluorobenzene-N,N'-diethylsulfimidamoyl)-3-methyl-sulfonylbenzoylguanidine, dihydrochloride]: the IC50 stood at 0.68 mM. To `CN=S(=O)(NC)c1cc(C(=O)N=C(N)N)ccc1C(C)C` (stereo not shown) [Example 4, 2-isopropyl-5-guanidinocarbonylbenzenesulfonic acid N,N'-dimethylimidamide] belongs 6 mM. Then `CS(=O)(=O)c1cc(C(=O)N=C(N)N)ccc1NS(=N)(=O)c1ccc(F)cc1` (stereo not shown) [Example 3, 3-Methylsulfonyl-4-(4-fluorobenzenesulfimidamoyl)benzoylguanidine], with 2 mM; and `CCN=S(=O)(c1ccc(F)cc1)N(CC)c1ccc(C(=O)N=C(N)N)cc1C(F)(F)F` (stereo not shown) [Example 2, 4-(4-Fluorobenzene-N,N'-diethylsulfimidamoyl)-3-trifluoro-methylbenzoylguanidine, dihydrochloride], with 0.053 mM.
